From ChEMBL document CHEMBL1201862, “PubChem BioAssay data set” (2004)
Active and inactive are the calls of the source.

Assays:
Major prion protein = Major prion protein (Homo sapiens, UniProt P04156); type: functional, cell-based
[1] = microbe, parasite or virus in culture; type: functional; details: Mycobacterium tuberculosis
[2] = target: Heat shock protein HSP 90-alpha (Homo sapiens, UniProt P07900); test: Luminescence-based dose response biochemical high throughput screening assay for inhibitors of the Heat Shock Protein 90 (HSP90). [Related pubchem assays: 1831 (Summary AID.), 1846 (Confirmation screen.), 1789 (Primary screen.)]
INS1 = test: INS-1E survival protection against cytokine death – cell-based, luminescence, retest, dose response (AID 449756); type: functional; details: Rattus norvegicus;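 note: cell death triggered by IL-1 beta plus TNF-alpha plus IFN-gamma mixture; protective hits raise ATP signal compared with cytokine alone wells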
[3] = target: Luciferin 4-monooxygenase (Photinus pyralis, UniProt P08659); test: inhibition of purified Photinus pyralis luciferase – biochemical, luminescence, dose response (AID 1891)
[4] = Luminescence Cell-Based Dose Confirmation HTS to Identify Inhibitors of Platelet Dense Granule Release. [Related pubchem assays: 1663 (Primary HTS), 1678 (Summary of Project)]; type: functional
[5] = NIH-3T3 fibroblast cytotoxicity, dose response, cytotoxicity control, cell-based, fluorescence, Alamar Blue, secondary assay (AID 2327); type: functional;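 note: NIH-3T3 mouse fibroblasts cultured with fluconazole at 8 µg/mL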
[6] = fluconazole-exposed Candida albicans growth modulators – fluorescence, retest, confirmation (AID 2467); type: functional, cell-based
[7] = toxicity to human hepatoma HepG2 cells – cell-based, cherry-picked samples, cytotoxicity control, dose response (AID 1159577); type: functional
[8] = P. falciparum Dd2 growth inhibitors, dose response, SYBR Green, cherry-picked samples (AID 1159567); type: functional, cell-based
[9] = SNU-C1 cell viability reduction, dose response, CellTiter-Glo luminescence (AID 1117323); type: functional, cell-based
[10] = HCT116 cell viability decrease, GSK3B pretreatment – CellTiter-Glo, IC50, dose response (AID 1117339); type: functional; details: HCT-116
[11] = cytotoxicity toward HCT116 cells – cell-based, CellTiter-Glo luminescence, IC50, dose response (AID 1117332); type: functional; details: HCT-116
[12] = cytotoxicity toward HT-29 cells – cell-based, CellTiter-Glo luminescence, IC50, dose response (AID 1117330); type: functional
[13] = cytotoxicity toward Colo320 cells – cell-based, CellTiter-Glo luminescence, IC50, dose response (AID 1117334); type: functional; details: COLO 320
[14] = CellTiter-Glo luminescence survival assay, SW480 colon tumor line, concentration-response curve, half-maximal inhibitory concentration (AID 1117338); type: functional
[15] = RKO cell viability reduction, dose response, CellTiter-Glo luminescence (AID 1117322); type: functional
[16] = rise of 2N DNA cells, HeLa – IC50, dose response (AID 1117349); type: functional, cell-based
[17] = rise of 4N DNA cells, HeLa – IC50, dose response (AID 1117351); type: functional, cell-based
[18] = Reduced DLD-1 viability, concentration-response, CellTiter-Glo luminescence (AID 1117352); type: functional
[19] = HEK-293T viability loss after treatment – luminescence, T-cell screen hits, cytotoxicity control for TCR NF-kB inhibitor project, dose response (AID 489026); type: functional, cell-based;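 note: cells exposed to compound about 14 hours before the viability readout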
[20] = Luminescence Cell-Based Dose Confirmation HTS to Identify Activators of 5'UTR Stem-Loop Driven Alpha-Synuclein mRNA Translation in H4 Neuroglioblastoma Cells. [Related pubchem assays: 1829 (Project Summary), 1814 (Primary HTS)]; type: functional
H4 = test: Luminescence Cell-Based Dose Response HTS to Identify Activators of 5'UTR Stem-Loop Driven Prion Protein mRNA Translation in H4 Neuroglioblastoma Cells. [Related pubchem assays: 1829 (Project Summary), 1814 (Primary HTS)]; type: functional; details: Homo sapiens
[21] = Luminescence Cell-Based Dose Response HTS to Identify Activators of Luciferase Translation or Activity in H4 […] Cells. [Related pubchem assays: 1829 (Project Summary), 1814 (Primary HTS)]; type: functional
[22] = Luminescent dose response cell-based high throughput screening assay for inhibitors of the Janus kinase 2 mutant JAK2V617F. [Related pubchem assays: 1446 (Primary screen.), 1521 (Confirmation assay.), 1486 (Counter screen.)]; type: functional
Ion channel NompC = Ion channel NompC (Danio rerio, UniProt Q7T1G6); test: Fluorescence counterscreen assay for TRPML3 agonists: dose response cell-based high-throughput screening assay to identify agonists of the transient receptor potential channel N1 (TRPN1). [Related pubchem assays: 1526, 1424, 1448 ]; type: functional
[23] = Fluorescence-based cell-based high throughput dose response assay for inhibitors of the interaction of nucleotide-binding oligomerization domain containing 2 (NOD2) and the receptor-interacting serine-threonine kinase 2 (RIPK2).; type: functional; details: Homo sapiens
Mucolipin-3 = target: T1, Mucolipin-3 (Homo sapiens, UniProt Q8TDD5); test: Dose response cell-based high-throughput screening assay for agonists of the transient receptor potential channel ML3 (TRPML3). [Related pubchem assays: 1526, 1424, 1448 ]; type: functional
T1 sequence (Q8TDD5 whole entry): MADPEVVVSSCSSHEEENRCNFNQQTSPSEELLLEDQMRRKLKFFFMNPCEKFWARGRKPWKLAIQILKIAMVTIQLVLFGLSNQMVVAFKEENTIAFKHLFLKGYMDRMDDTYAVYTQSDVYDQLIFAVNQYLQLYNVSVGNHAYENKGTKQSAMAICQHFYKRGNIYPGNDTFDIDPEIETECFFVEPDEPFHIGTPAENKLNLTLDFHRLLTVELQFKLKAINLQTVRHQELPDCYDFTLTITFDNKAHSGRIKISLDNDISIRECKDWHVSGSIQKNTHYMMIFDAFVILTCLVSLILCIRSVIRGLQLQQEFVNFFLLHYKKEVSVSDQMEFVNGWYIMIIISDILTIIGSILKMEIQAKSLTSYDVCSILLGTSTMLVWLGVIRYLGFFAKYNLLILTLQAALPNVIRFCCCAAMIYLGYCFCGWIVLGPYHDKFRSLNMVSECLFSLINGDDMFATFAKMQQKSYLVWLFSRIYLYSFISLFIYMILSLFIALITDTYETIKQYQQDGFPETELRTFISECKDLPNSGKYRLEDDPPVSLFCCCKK

[24] = Luminescence Cell-Based Dose Retest to Confirm Inhibitors of Cancer Stem Cells. [Related pubchem assays (depositor defined):AID2717, AID2721]; type: functional; details: Homo sapiens
[25] = target: E3 ubiquitin-protein ligase Mdm2 (Homo sapiens, UniProt Q00987); test: MDM2-luc reporter signal enhancers, multi-concentration potency testing, MDM2 ubiquitin-protein ligase inhibitor program, whole-cell format, luminescence detection, 384-well microplate (AID 1394); type: functional;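 note: MDM2 E3 inhibitors raise luminescence so EC50 is for signal enhancement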
Estrogen receptor beta [26] = target: T2, Estrogen receptor beta (Homo sapiens, UniProt Q92731); test: blockers of SRC-3 recruitment to ERβ – biochemical, ELISA, streptavidin-HRP readout, orthogonal assay, confirmation (AID 1060)
Estrogen receptor beta [27] = target: T2, Estrogen receptor beta
[28] = growth inhibition of PfATP4-mutant resistant parasites – NITD609-resistant line, SYBR Green, dry powder, dose response (AID 1159571); type: functional, cell-based;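 note: parasites synchronized at ring stage by sorbitol before testing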
[29] = growth inhibition of yeast DHODH-expressing 3D7 parasites – SYBR Green, dry powder samples, dose response (AID 1159570); type: functional, cell-based;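 note: parasite growth measured after 72 hours of compound exposure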
[30] = Dd2 malaria parasite growth inhibition potency – SYBR Green, dry powder samples, dose response (AID 1159566); type: functional, cell-based;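 note: potency for growth inhibition with lower SYBR green DNA signal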
[31] = toxicity to human HepG2 hepatoma cells – cell-based, plate reader, dry powder samples, cytotoxicity control, dose response (AID 1159569); type: functional;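 note: inhibitor potency with signal falling toward the positive control level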
Kallikrein-7 = Kallikrein-7 (Homo sapiens, UniProt P49862); test: Fluorescence Intensity-based biochemical primary high throughput dose response assay to identify activators of kallikrein-7 (K7) zymogen.

SMILES: CC1CCC(NC(=O)c2cc3c(s2)CCCC3)CC1 (stereo unspecified)
- IC50 (cells): > 138 µM (inactive)
- IC50 (Major prion protein): 4.39 µM (active)
- CC50 [1]: > 40 µM (active)

SMILES: CCCCOc1ccc(-c2cc(C(=O)NN=C(S)NCC)c3ccccc3n2)cc1
- IC50 [2]: 2.45 µM (active)
- AC50 (INS1): 3.2 µM (active)
- EC50 [3]: 0.516 µM (active)
- EC50 [4]: < 0.701 µM (active)
- EC50 [5]: 16.1 µM (inconclusive)
- EC50 [6]: 1.8 µM (active)

SMILES: COc1ccccc1C#Cc1ccc([C@H]2[C@@H](C#N)N(C(=O)C3CCC3)[C@@H]2CO)cc1
- AC50 [7]: > 39 µM (inactive)
- AC50 [8]: 4.98 µM (active)

SMILES: CCc1oc2ccccc2c1C(=O)c1cc(I)c(O)c(I)c1 [BENZIODARONE]
- IC50 [9]: 0.001 µM (active)
- IC50 [10]: 0.001 µM (active)
- IC50 [11]: 0.003 µM (active)
- IC50 [12]: 0.001 µM (active)
- IC50 [13]: 0.003 µM (active)
- IC50 [14]: 0.001 µM (active)
- IC50 [15]: 0.003 µM (active)
- IC50 [16]: > 10 µM (inactive)
- IC50 [17]: > 10 µM (inactive)
- IC50 [18]: 0.003 µM (active)

SMILES: O=C1C=CCC(/C=C/c2ccccc2)O1 (stereo unspecified)
- IC50 [19]: > 80 µM (inactive)
- EC50 [20]: > 120 µM (not active)
- EC50 (H4): 98.3 µM (active)
- EC50 [21]: > 120 µM (not active)
- IC50 [22]: 1.31 µM (active)

SMILES: O=S(=O)(c1cnc(Cl)c(Br)c1)N1CCc2ccccc21
- EC50 (Ion channel NompC): > 29.9 µM (not active)
- IC50 [23]: 6.35 µM (active)
- EC50 (Mucolipin-3): 7.71 µM (active)
- AC50 [24]: 12.1 µM (inconclusive)
- IC50 [22]: 4.22 µM (active)

SMILES: COCCNc1nc2nonc2nc1N(C)Cc1cccc2cnccc12
- EC50 [25]: 0.22 µM (not active)

SMILES: Cc1ccc(NC(=O)COc2ccc(-n3cnnn3)cc2)cc1C
- IC50 (Estrogen receptor beta [26]): < 0.023 µM (not active)
- IC50 (Estrogen receptor beta [27]): > 50 µM (not active)

SMILES: COc1cccc(C#Cc2ccc([C@@H]3[C@@H](CO)N(C(=O)C4CCCCC4)[C@H]3C#N)cc2)c1
- AC50 [28]: 2.06 µM (active)
- AC50 [7]: > 39 µM (inactive)
- AC50 [29]: 2 µM (active)
- AC50 [30]: 1.72 µM (active)
- AC50 [31]: 24.5 µM (active)
- AC50 [8]: 2.6 µM (active)

SMILES: Cc1nn(CCc2nnn[nH]2)c2nc(C(F)(F)F)cc(C(F)(F)F)c12
- EC50 (Kallikrein-7): > 69.5 µM (inactive)
